Entries after “also recorded” stand apart in the source; their conditions may differ. Like-named read-outs stand apart in the source and are kept apart here.
What was measured:
[1] = early-stage clinical studies (safety, tolerability, pharmacokinetics); type: in vivo
From the text: (§1) PRX-3140 is being developed for Alzheimer's disease (AD) and other dementias affecting the cholinergic and/or serotonergic systems including post-traumatic stress disorder (PTSD). Extensive non-clinical studies have been completed including in vitro and in vivo pharmacology, safety pharmacology, genotoxicity as well as single and repeat dose toxicology studies in two species, rat and beagle dog.

[2] = molecular target: Sigma-2 receptor (Homo sapiens, UniProt Q5BJF2); assay: Sigma-2 radioligand binding assays
From the text: (§2) The specific ligand binding to the receptors is defined as the difference between the total binding and the nonspecific binding determined in the presence of an excess of unlabelled ligand.

[3] = test system: all other 5-HT receptors tested; assay: radioligand binding, other 5-HT receptors (selectivity); settings: vs 5-HT4R affinity
From the text: as §2

[4] = brain/serum partition after oral administration in preclinical studies; settings: in vivo
From the text: as §1

[5] = test system: distal gastrointestinal motility; assay: distal gastrointestinal motility; settings: in vivo
From the text: as §1

[6] = test system: more than 50 other receptors tested including GPCRs, ion channels and receptor tyrosine kinases; assay: binding panel of other receptors
From the text: as §2

[7] = molecular target: Sigma-1 receptor (Homo sapiens, UniProt Q99720); assay: Sigma-1 radioligand binding assays
From the text: as §2

[8] = 30% peroxide degradation study, LC/UV/MS; type: physicochemical; settings: 18-hour exposure to 30% hydrogen peroxide, HPLC 250 nm
[9] = forced degradation study (acid, base, 3% hydrogen peroxide), LC-UV-MS; type: physicochemical
Experimental: Crystalline fine particle Form I of PRX-3140 potassium salt was subjected to a forced degradation study using acid, base, or hydrogen peroxide exposure for 24 hours. Samples were neutralized and analyzed using LC-UV-MS. [table] Sample Preparation: […] One mL of stock was added to four, 4 mL vials. […] After storage, the samples of acid and base were neutralized by addition of 1 mL their counter solution. […] Samples were analyzed using LC-UV-MS. Table 5 lists a comparison for the control, acid, base, and peroxide samples showing percent peak area versus relative retention time (RRT) at 250 nm. While some minor changes can be noted between the control with the acid and base samples, the overall purity (peak area) of the parent molecule is just slightly higher for the acid and base sample. Some of the minor impurities appear to be reacting with the acid or base, potentially reforming to the parent.

[10] = photostability study (ICH Q1B), HPLC; type: physicochemical
Experimental: Two samples of crystalline fine particle Form I of PRX-3140 potassium salt were prepared for photostability testing: (1) 1.5 grams spread evenly across a glass Petri dish and covered with a transparent quartz cover and (2) 1.5 grams spread evenly across a glass Petri dish and covered with aluminum foil. […] Samples were exposed for 2 days and tested using HPLC […] […] Changes were evident for crystalline fine particle Form I of PRX-3140 potassium salt after exposure to UVA and white light. The sample changed color particularly on the upper exposed surface of the material and there were changes apparent in the HPLC data. […] The single impurity profile met the specification (<0.2%) but significant changes were observed. […] Other changes included a change in appearance of the material to a sticky solid and an increase in water content to 4.3% w/w.

[11] = test system: distal gastrointestinal motility; settings: gastrointestinally active 5-HT4 agonists, comparison; cited from earlier work
[12] = Acid (1N HCl, 24 hours), 250 nm
[13] = Base (1N NaOH, 24 hours), 250 nm
[14] = Control (DI water, 24 hours), 250 nm
[15] = Control (covered with aluminum foil), potassium salt
[16] = Exposed Sample (ICH Q1B light, 2 days), potassium salt

Sigma-2 receptor, sequence (Q5BJF2 whole entry): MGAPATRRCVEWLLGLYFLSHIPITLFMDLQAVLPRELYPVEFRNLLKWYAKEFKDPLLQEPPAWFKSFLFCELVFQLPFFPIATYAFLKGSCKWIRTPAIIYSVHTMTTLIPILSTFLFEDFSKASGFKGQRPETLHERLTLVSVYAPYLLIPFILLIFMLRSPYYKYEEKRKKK
Sigma-1 receptor, sequence (Q99720 whole entry): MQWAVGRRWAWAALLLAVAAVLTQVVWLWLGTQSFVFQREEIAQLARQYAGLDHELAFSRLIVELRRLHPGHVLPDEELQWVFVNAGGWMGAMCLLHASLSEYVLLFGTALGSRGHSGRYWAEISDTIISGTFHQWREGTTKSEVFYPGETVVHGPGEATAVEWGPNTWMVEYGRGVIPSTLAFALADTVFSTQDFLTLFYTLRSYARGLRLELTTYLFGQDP

SMILES: CC(C)n1c(=O)c(C(=O)NCCCN2CCCCC2)c([O-])c2ccsc21.[K+] [PRX-3140 potassium salt, 6,7-Dihydro-4-hydroxy-7-isopropyl-6-oxo-N-(3-(piperidin-1-yl)propyl)thieno[2,3-b]pyridine-5-carboxamide potassium salt]
- oral bioavailability [1]: high oral bioavailability
- Ki [2]: 99 to 160 nM
- difference in affinities compared with all other 5-HT receptors tested [3]: more than 100 fold
- CNS penetration [4]: high CNS penetration
- distal gastrointestinal motility [5]: without inducing significant distal gastrointestinal motility
- affinity for other receptors [6]: no significant affinity
- Ki [7]: 79 to 100 nM
- purity of the parent molecule [8]: 29.6%
- effect of acid on the compound ([9]; 1 N HCl for 24 hours): very little effect
- effect of base on the compound ([9]; 1 N NaOH for 24 hours): very little effect
- percent peak area, RRT 0.99 [9, 12]: 0.07%
- percent peak area, RRT 1.05 (PRX-3140b) [9, 12]: <0.03%
- percent peak area, RRT 1.08 [9, 12]: 0.11%
- percent peak area, RRT 1.11 [9, 12]: 0.04%
- percent peak area, RRT 1.27 [9, 12]: 0.04%
- percent peak area, RRT 1.34 [9, 12]: 0.15%
- percent peak area, RRT 1.53 [9, 12]: 0.43%
- percent peak area, RRT 1.79 [9, 12]: 0.04%
- percent peak area, RRT 2.51 [9, 12]: 0.06%
- percent peak area, RRT 2.70 [9, 12]: 0.13%
- percent peak area, RRT 1.00 (parent molecule, purity) ([9]; Acid (1N HCl, 24 hours), 250 nm, listed as PRX-3140 Potassium Salt, potassium salt): 98.94%
- percent peak area, RRT 1.00 (parent molecule, purity) ([9]; Acid (1N HCl, 24 hours), 250 nm, potassium salt): 98.9%
- percent peak area, RRT 0.94 [9, 13]: 0.28%
- percent peak area, RRT 1.05 (PRX-3140b) [9, 13]: <0.03%
- percent peak area, RRT 1.08 [9, 13]: 0.12%
- percent peak area, RRT 1.34 [9, 13]: 0.16%
- percent peak area, RRT 1.53 [9, 13]: 0.42%
- percent peak area, RRT 1.79 [9, 13]: 0.05%
- percent peak area, RRT 2.51 [9, 13]: 0.05%
- percent peak area, RRT 2.70 [9, 13]: 0.12%
- percent peak area, RRT 1.00 (parent molecule, purity) ([9]; Base (1N NaOH, 24 hours), 250 nm, listed as PRX-3140 Potassium Salt, potassium salt): 98.71%
- percent peak area, RRT 1.00 (parent molecule, purity) ([9]; Base (1N NaOH, 24 hours), 250 nm, potassium salt): 98.7%
- percent peak area, RRT 1.05 (PRX-3140b) [9, 14]: <0.03%
- percent peak area, RRT 1.08 [9, 14]: 0.12%
- percent peak area, RRT 1.11 [9, 14]: 0.04%
- percent peak area, RRT 1.34 [9, 14]: 0.17%
- percent peak area, RRT 1.53 [9, 14]: 0.42%
- percent peak area, RRT 1.71 [9, 14]: 0.23%
- percent peak area, RRT 1.79 [9, 14]: 0.11%
- percent peak area, RRT 1.93 [9, 14]: 0.06%
- percent peak area, RRT 2.51 [9, 14]: 0.06%
- percent peak area, RRT 2.70 [9, 14]: 0.18%
- percent peak area, RRT 1.00 (parent molecule, purity) ([9]; Control (DI water, 24 hours), 250 nm, listed as PRX-3140, potassium salt): 98.6%
- percent peak area, RRT 1.00 (parent molecule, purity) ([9]; Control (DI water, 24 hours), 250 nm, listed as PRX-3140 Potassium Salt, potassium salt): 98.60%
- percent peak area, RRT 1.00 (parent molecule, purity) ([9]; Control (DI water, 24 hours), 250 nm, potassium salt): 98.6%
- percent peak area, RRT 0.78 (PRX-3140a) ([9]; H2O2 (3%, 24 hours), 250 nm): 8.49%
- percent peak area, RRT 0.82 ([9]; H2O2 (3%, 24 hours), 250 nm): 0.10%
- percent peak area, RRT 1.05 (PRX-3140b) ([9]; H2O2 (3%, 24 hours), 250 nm): 9.06%
- percent peak area, RRT 1.08 ([9]; H2O2 (3%, 24 hours), 250 nm): 0.19%
- percent peak area, RRT 1.27 ([9]; H2O2 (3%, 24 hours), 250 nm): 0.21%
- percent peak area, RRT 1.34 ([9]; H2O2 (3%, 24 hours), 250 nm): 0.09%
- percent peak area, RRT 1.42 ([9]; H2O2 (3%, 24 hours), 250 nm): 0.32%
- percent peak area, RRT 1.53 ([9]; H2O2 (3%, 24 hours), 250 nm): 0.42%
- percent peak area, RRT 1.79 ([9]; H2O2 (3%, 24 hours), 250 nm): 0.19%
- percent peak area, RRT 2.70 ([9]; H2O2 (3%, 24 hours), 250 nm): 0.11%
- percent peak area, RRT 1.00 (parent molecule, purity) ([9]; H2O2 (3%, 24 hours), 250 nm, listed as PRX-3140, potassium salt): 80.6%
- percent peak area, RRT 1.00 (parent molecule, purity) ([9]; H2O2 (3%, 24 hours), 250 nm, listed as PRX-3140 Potassium Salt, potassium salt): 80.57%
- percent peak area, RRT 1.00 (parent molecule, purity) ([9]; H2O2 (3%, 24 hours), 250 nm, potassium salt): 80.6%
- Unknown (RRT 0.55) ([10]; Control): 0.01%
- Unknown (RRT 0.74) ([10]; Control): 0.01%
- Unknown (RRT 0.75) ([10]; Control): 0.01%
- Unknown (RRT 0.87) ([10]; Control): 0.09%
- Unknown (RRT 0.95) ([10]; Control): 0.04%
- Unknown (RRT 0.98) ([10]; Control): 0.01%
- Unknown (RRT 1.07) ([10]; Control): 0.01%
- Unknown (RRT 1.12) ([10]; Control): 0.01%
- Unknown (RRT 1.22) ([10]; Control): 0.01%
- Appearance ([10]; Control (covered with aluminum foil)): Pinkish solid
- Total impurities [10, 15]: 0.20%
- Water Content - KF [10, 15]: 3.1 % w/w
- Unknown (RRT 0.55) ([10]; Exposed Sample): 0.01%
- Unknown (RRT 0.74) ([10]; Exposed Sample): 0.02%
- Unknown (RRT 0.75) ([10]; Exposed Sample): 0.01%
- Unknown (RRT 0.86) ([10]; Exposed Sample): 0.01%
- Unknown (RRT 0.87) ([10]; Exposed Sample): 0.10%
- Unknown (RRT 0.90) ([10]; Exposed Sample): 0.01%
- Unknown (RRT 0.91) ([10]; Exposed Sample): 0.01%
- Unknown (RRT 0.95) ([10]; Exposed Sample): 0.05%
- Unknown (RRT 0.98) ([10]; Exposed Sample): 0.04%
- Unknown (RRT 1.07) ([10]; Exposed Sample): 0.06%
- Unknown (RRT 1.12) ([10]; Exposed Sample): 0.02%
- Unknown (RRT 1.22) ([10]; Exposed Sample): 0.01%
- Unknown (RRT 1.50) ([10]; Exposed Sample): 0.02%
- Unknown (RRT 1.54) ([10]; Exposed Sample): 0.01%
- Unknown (RRT 1.57) ([10]; Exposed Sample): 0.01%
- Unknown (RRT 1.63) ([10]; Exposed Sample): 0.05%
- Unknown (RRT 1.75) ([10]; Exposed Sample): 0.04%
- Unknown (RRT 1.76) ([10]; Exposed Sample): 0.03%
- Unknown (RRT 1.79) ([10]; Exposed Sample): 0.01%
- Unknown (RRT 2.06) ([10]; Exposed Sample): 0.01%
- Unknown (RRT 2.08) ([10]; Exposed Sample): 0.01%
- Unknown (RRT 2.16) ([10]; Exposed Sample): 0.01%
- Appearance [10, 16]: sticky solid; also recorded: Orange
- Total impurities [10, 16]: 0.77%
- Water Content - KF [10, 16]: 4.3 % w/w
- Unknown (RRT 1.72) ([10]; Exposed Sample, first RRT 1.72 line (r24)): 0.04%
- Unknown (RRT 1.83) ([10]; Exposed Sample, potassium salt): 0.16%
- Unknown (RRT 1.72) ([10]; Exposed Sample, second RRT 1.72 line (r25)): 0.02%
- assay value ([10]; illuminated photostability sample): 94.2 % w/w
- Appearance ([10]; t = 0): Light brown solid
- Total impurities ([10]; t = 0): 0.22%
- Unknown (RRT 0.55) ([10]; t = 0): 0.01%
- Unknown (RRT 0.74) ([10]; t = 0): 0.01%
- Unknown (RRT 0.75) ([10]; t = 0): 0.01%
- Unknown (RRT 0.87) ([10]; t = 0): 0.09%
- Unknown (RRT 0.95) ([10]; t = 0): 0.05%
- Unknown (RRT 0.98) ([10]; t = 0): 0.01%
- Unknown (RRT 1.12) ([10]; t = 0): 0.01%
- Unknown (RRT 1.22) ([10]; t = 0): 0.01%
- Unknown (RRT 2.01) ([10]; t = 0): 0.01%
- Unknown (RRT 2.16) ([10]; t = 0): 0.01%
- Unknown (RRT 2.38) ([10]; t = 0): 0.01%
- Water Content - KF ([10]; t = 0, potassium salt): 0.9 % w/w

SMILES: COc1cc(N)c(Cl)cc1C(=O)NC1CCN(CCCOc2ccc(F)cc2)CC1OC (stereo not drawn) [cisapride]
- distal gastrointestinal motility [11]: significant distal gastrointestinal motility observed

Source: patent US11993609B2, “Compositions and methods for oral delivery of crystalline PRX-3140 potassium salt” (Nanopharmaceutics, Inc., priority 2022, dated 2024)
